Laboratory results taken from patent US4183920A, “4-N-Acyl, 2'-N-acyl and 4,2'-N,N'-diacylfortimicin E derivatives” (Abbott Laboratories, priority 1977, dated 1980).
Where a name gives a salt, the structure may show the parent alone. Read-outs that look alike come from different tables or passages of the source.

Key:
Assay in all cases: In vitro antibiotic activity, 2-fold agar dilution method
Format in all cases: cell-based
[1] = tested on: Bacillus subtilus U. Ill. 10707
Method: (§1) The in vitro antibiotic activity is determined by a 2-fold agar dilution method using 10 ml. per petri plate of Mueller-Hinton agar. The agar is inoculated with one loopful (0.001 ml. loop) of a 1:10 dilution of a 24 hour broth culture of the indicated test organism and incubated at 37° C. for 24 hours. Minimum inhibitory concentrations (MIC) are expressed as mcg/ml.

E. coli Juhl = details: Escherichia coli
Method: as §1

E. coli R3 = details: Escherichia coli
Method: as §1

Kleb. pneumoniae KY 4262 = details: Klebsiella pneumoniae
Method: as §1

Proteus vulgaris JJ = tested on: Proteus vulgaris JJ
Method: as §1

Pseudo aeruginosa = tested on: Pseudo aeruginosa
Method: as §1

Sal. typhimurium Ed #9 = details: Salmonella enterica
Method: as §1

Shigella sonnei 9290 = details: Mueller-Hinton agar, 37° C., 24 hours
Method: as §1

Staph aureus Smith = details: Staphylococcus aureus
Method: as §1

Strep. faecalis 10541 = tested on: Strep. faecalis 10541
Method: as §1

[2] = Bacillus subtilus U. Ill. 10707, Mueller-Hinton agar, 37° C., 24 hours, read-out: MIC
[3] = E. coli Juhl, Mueller-Hinton agar, 37° C., 24 hours, read-out: MIC
[4] = E. coli R3, Mueller-Hinton agar, 37° C., 24 hours, read-out: MIC
[5] = KY4262, Kleb. pneumoniae KY 4262, Mueller-Hinton agar, 37° C., 24 hours, read-out: MIC
[6] = Proteus vulgaris JJ, Mueller-Hinton agar, 37° C., 24 hours, read-out: MIC
[7] = Pseudo aeruginosa, Mueller-Hinton agar, 37° C., 24 hours, read-out: MIC
[8] = Sal. typhimurium Ed #9, Mueller-Hinton agar, 37° C., 24 hours, read-out: MIC
[9] = Staph aureus Smith, Mueller-Hinton agar, 37° C., 24 hours, read-out: MIC
[10] = Enterococcus faecalis, Strep. faecalis 10541, Mueller-Hinton agar, 37° C., 24 hours, read-out: MIC

Row | SMILES | MIC [1, 2] [µg/mL] | MIC (E. coli Juhl; [3]) [µg/mL] | MIC (E. coli R3; [4]) [µg/mL] | MIC (Kleb. pneumoniae KY 4262; [5]) [µg/mL] | MIC (Proteus vulgaris JJ; [6]) [µg/mL] | MIC (Pseudo aeruginosa; [7]) [µg/mL] | MIC (Sal. typhimurium Ed #9; [8]) [µg/mL] | MIC (Shigella sonnei 9290) [µg/mL] | MIC (Staph aureus Smith; [9]) [µg/mL] | MIC (Strep. faecalis 10541; [10]) [µg/mL] | MIC ([1]; Bacillus, U.ILL.10707, 24 h) [µg/mL] | MIC (E. coli Juhl; 24 h) [µg/mL] | MIC (E. coli R3; R3, 24 h) [µg/mL] | MIC (Kleb. pneumoniae KY 4262; KY4262, 24 h) [µg/mL] | MIC (Proteus vulgaris JJ; Proteus vulgaris, 24 h) [µg/mL] | MIC (Pseudo aeruginosa; 24 h) [µg/mL] | MIC (Sal. typhimurium Ed #9; TYPHIMURIUM, 24 h) [µg/mL] | MIC (Staph aureus Smith; 24 h) [µg/mL] | MIC (Strep. faecalis 10541; Enterococcus faecalis, 10541, 24 h) [µg/mL]
1 | CNCC(=O)N(C)C1C(O)C(OC2OC(C(C)N)CCC2N)C(N)C(O)C1OC (stereo not shown) [4-N-sarcosylfortimicin E tetrahydrochloride salt] | 6.25 | 50 | > 100 | 100 | > 100 | > 100 | 50 | 100 | 25 | > 100 | – | – | – | – | – | – | – | – | –
2 | COC1C(O)C(N)C(OC2OC(C(C)N)CCC2N)C(O)C1N(C)C(=O)CN (stereo not shown) [4-N-glycylfortimicin E tetrahydrochloride salt] | – | – | – | – | – | – | – | 25 | – | – | 12.5 | 6.25 | > 100 | 25 | > 100 | > 100 | 25 | 6.25 | > 100
3 | COC1C(O)C(N)C(OC2OC(C(C)N)CCC2N)C(O)C1N(C)C(=O)[C@@H](O)CCN (stereo partly drawn) [4-N-L-(2-hydroxy-4-amino)butyrylfortimicin E tetrahydrochloride salt] | 12.5 | 50 | > 100 | 50 | > 100 | > 100 | 100 | > 100 | 25 | > 100 | – | – | – | – | – | – | – | – | –
4 | COC1C(O)C(N)C(OC2OC(C(C)N)CCC2N)C(O)C1N(C)C(=O)CCN (stereo not drawn) [4-N-β-alanylfortimicin E tetrahydrochloride salt] | 12.5 | 25 | > 100 | 25 | > 100 | > 100 | 25 | > 100 | 12.5 | > 100 | – | – | – | – | – | – | – | – | –
